Reference: patent publication US20180161288A1, “TAU AGGREGATION INHIBITOR” (National Center for Geriatrics and Gerontology, priority 2011, published 2018)

Legend:
tau [1] = target: T1, tau (Homo sapiens, UniProt P10636); experiment: sucrose-density gradient centrifugation with SDS-PAGE western blotting of tau; type: biochemical; details: for amount of tau (granular and filamentous tau aggregates) fractionated into Fr3 and subsequent fractions: FIG. 11; for amount of tau in fractions Fr3, 4, 5, and 6: compound 100 μM, FIG. 2
T1 sequence (P10636 1-441 isoform P10636-8): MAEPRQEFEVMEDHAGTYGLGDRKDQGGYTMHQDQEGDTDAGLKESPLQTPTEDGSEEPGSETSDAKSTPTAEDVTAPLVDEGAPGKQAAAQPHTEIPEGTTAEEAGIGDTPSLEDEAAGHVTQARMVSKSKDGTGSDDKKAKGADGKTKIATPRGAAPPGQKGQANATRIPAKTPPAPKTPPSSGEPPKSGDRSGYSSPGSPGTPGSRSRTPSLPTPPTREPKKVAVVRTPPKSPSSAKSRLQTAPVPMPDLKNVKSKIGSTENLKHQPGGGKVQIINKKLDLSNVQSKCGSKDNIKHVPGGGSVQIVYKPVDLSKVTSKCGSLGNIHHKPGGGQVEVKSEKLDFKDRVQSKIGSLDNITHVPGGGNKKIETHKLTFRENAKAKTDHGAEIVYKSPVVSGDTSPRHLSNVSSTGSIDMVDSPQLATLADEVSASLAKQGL

tau [2] = target: T1, tau; experiment: thioflavine T stain of heparin-induced tau aggregation; type: biochemical; details: 10 μM tau
tau [3] = target: T1, tau; experiment: quantification of insoluble tau pellet after centrifugation at 250000 xg; type: biochemical; details: pellet after 250000 xg for 2 h
Procedure: For this analysis, 10-μM tau, a compound (1 μM, 10 μM, or 100 μM), and thioflavine T (a beta-pleated sheet structure-specific detection reagent) were mixed together. Thereafter, heparin, which is a tau aggregation inducer, was added to the mixture, and the resulting mixture was incubated at 37° C., thereby allowing tau to aggregate. Subsequently, the thioflavine T activity in an incubation sample was measured at various times to investigate tau aggregation inhibition effects by the compounds.
To further investigate the effects of these nine compounds on tau aggregation specifically, samples that had been incubated at 37° C. were centrifuged at 250000 ×g for 2 h, the resultant pellets were obtained so that the amount of insoluble tau were quantified.

P301L tau Tg mice = experiment: sarkosyl-insoluble tau in brains of P301L tau Tg mice; type: in vivo
tau [4] = target: T1, tau; experiment: atomic force microscope observation of tau aggregation; type: biochemical; details: sample incubated for 120 hours; FIG. 12
Procedure: Thereafter, to analyze a change of tau aggregation by d-isoprenaline morphologically, the sample was investigated by using an atomic force microscope. A tau aggregation sample that had been incubated for 120 hours was loaded on a mica board and adsorbed thereon. […] FIG. 12A is a photograph of a control, FIG. 12B is a photograph showing effects of d-isoprenaline on a tau aggregation sample, and FIG. 12C is a graph of measured major axes of tau aggregation.

WT tau Tg mice = experiment: tau dephosphorylation (tau1 antibody) in TBS-soluble fractions from WT tau Tg mice; type: in vivo; details: TBS-soluble fraction; FIG. 9
Source text: A change in tau phosphorylation in TBS-soluble fractions from WT tau Tg mice was investigated.

WT tau [5] = target: T2, WT tau (Homo sapiens, UniProt P10636); experiment: MC1 dot blotting and AT8 phosphorylation in WT tau-expressing COS-7 cells; type: cell-based, African green monkey
T2 construct: expressed in transfected cells; host or cells: COS-7 (African green monkey kidney)
T2 sequence (P10636 1-441 isoform P10636-8): as above
Source text: Tau phosphorylations at AT8 sites are known to induce a tau conformational change (that can be detected with the MC1 antibody) observed in AD brains. Thus, WT tau was expressed in COS-7 cells (derived from African green monkey kidney), and a tau conformational change was detected by dot blotting using the MC1 antibody. The dot blotting is a technique of fixing protein to a nitrocellulose membrane or a PVDF membrane without separation through electrophoresis and specifically quantitating the protein amount with enzyme-labeled antibodies.

WT tau [6] = target: T2, WT tau; experiment: tau and acetylated tubulin in microtubule fraction of WT tau-expressing COS-7 cells; type: cell-based, African green monkey; details: 10 μM, 24 hours
Procedure: The homogenates were then centrifuged at 3000×g for 5 min at 25° C., and thea supernatant was obtained as a total fraction. The total fraction was further centrifuged at 100000×g for 20 min at 20° C., and a pellet (a microtubule fraction) was obtained. In this manner, the microtubule fraction was taken from the COS-7 cells expressing WT tau, and acetylated tubulin serving as an index of tau and microtubule stabilization was detected.

human P301L mutant tau [7] = target: T3, human P301L mutant tau (Homo sapiens, UniProt P10636, P618L); experiment: tau phosphorylation (AT8) in RIPA-soluble fractions of Neuro2a cells; type: cell-based; details: RIPA-soluble fraction, FIG. 4
T3 construct: expressed in transfected cells
T3 sequence (P10636 1-441 isoform P10636-8 P301L): as the sequence (P10636 1-441 isoform P10636-8) above, with P301L counted along it
Procedure: As cells, Neuro2a cell lines in which human P301L mutant tau (i.e., mutant tau in which 301st proline of tau is changed to leucine) is expressed in stable were used. […] Then, SDS-insoluble fractions were obtained so that a change in the amounts of tau was observed.
In addition, changes of tau phosphorylation in radio-immunoprecipitation assay (RIPA) buffer-soluble fractions obtained from similar cells were analyzed. […] The composition of the RIPA buffer was 50 mM Tris-HCl (pH7.4), 150 mM sodium chloride, 0.25 w/v % sodium deoxycholate, 1 mM EGTA, and 1.0 w/v % NP-40 substitute.

human P301L mutant tau [8] = target: T3, human P301L mutant tau; experiment: SDS-insoluble tau in Neuro2a cells expressing P301L mutant tau; type: cell-based; details: Neuro2a cells, 0.01, 0.1 and 1 μM isoprenaline for 48 hours; FIG. 3

## CC(C)NCC(O)c1ccc(O)c(O)c1 (racemic) [d/l-isoprenaline, mixture of (S)-(+)-isoprenaline and (R)-(−)-isoprenaline]
Tau [1]
  amount of tau (granular and filamentous tau aggregates) fractionated into Fr3 and subsequent fractions: apparently reduced the amount of tau
Tau [2]; compound 1-100 μM, FIG. 10
  thioflavine T activity: inhibition of thioflavine T activity

## CNC[C@H](O)c1ccc(O)c(O)c1 [(R)-(−)-epinephrine]
Tau [1]
  amount of tau in fractions Fr3, 4, 5, and 6: reduced the amount of tau in fractions Fr3, 4, 5, and 6
Tau [3]
  amount of insoluble tau: reduced the amount of insoluble tau in a concentration dependent manner
Tau [2]; FIG. 1, heparin, 37° C.
  thioflavine T activity: significantly reduced thioflavine T activity

## CC(C)NC[C@@H](O)c1ccc(O)c(O)c1 [d-isoprenaline, (S)-(+)-isoprenaline]
Tau [1]
  amount of tau (granular and filamentous tau aggregates) fractionated into Fr3 and subsequent fractions: apparently reduced the amount of tau
P301L tau Tg mice; mice aged 20-21 months, 2.168 mg/g fed in mash for three months, FIGS. 13, 14
  amount of insoluble tau in cerebral cortices: apparently reduced the amount of insoluble tau
P301L tau Tg mice; mice aged 20-21 months, 2.168 mg/g fed in mash for three months, FIGS. 15, 16
  amount of insoluble tau in hippocampi: apparently reduced the amount of insoluble tau
Tau [2]; compound 1-100 μM, FIG. 10
  thioflavine T activity: inhibition of thioflavine T activity similar to that of d/l-isoprenaline
Tau [4]
  number of tau aggregates having major axes of 20 nm or more: apparently reduced the number of tau aggregates

## NCCc1ccc(O)c(O)c1 [dopamine]
Tau [2]; FIG. 1, heparin, 37° C.
  thioflavine T activity: significantly reduced thioflavine T activity

## CC(C)NCC(O)c1ccc(O)c(O)c1 (centres unmarked) [isoprenaline]
Tau [1]
  amount of tau in fractions Fr3, 4, 5, and 6: reduced the amount of tau in fractions Fr3, 4, 5, and 6
P301L tau Tg mice; 1.5 mg/g fed mixed in mash for three months, FIG. 7
  amount of sarkosyl-insoluble tau in the brains: reduced the amount of sarkosyl-insoluble tau
WT tau Tg mice
  dephosphorylation of tau labeled by tau1 antibody: induced dephosphorylation of tau
Tau [2]; FIG. 1, heparin, 37° C.
  thioflavine T activity: significantly reduced thioflavine T activity
WT tau [5]; FIG. 5C
  tau phosphorylation (AT8 sites): also reduced phosphorylation
WT tau [5]; TBS-soluble fraction, FIG. 5A, 5B
  tau conformational change detected with MC1 antibody: reduced the tau conformational change
WT tau [6]; FIG. 6A-C
  amount of tau in the microtubule fraction: increased the amount of tau in the microtubule fraction
WT tau [6]; FIG. 6D-F
  amount of acetylated tubulin: further increased the amount of acetylated tubulin
Human P301L mutant tau [7]
  tau phosphorylation (AT8): reduced tau phosphorylation
Human P301L mutant tau [8]
  amount of SDS-insoluble tau: reduced the amounts of SDS-insoluble tau

## [Cl-].[Li+] [lithium chloride]
Human P301L mutant tau [8]
  amount of SDS-insoluble tau: reduced the amounts of SDS-insoluble tau

## NC[C@H](O)c1ccc(O)c(O)c1 [norepinephrine]
Tau [2]; FIG. 1, heparin, 37° C.
  thioflavine T activity: significantly reduced thioflavine T activity
